Assay results: the NIST ThermoML archive (doi:10.1016/j.jct.2014.02.009)
Numbers after ± are expanded uncertainties.

Conditions: 100 kPa, Liquid; for viscosity: Falling or rolling sphere viscometry; for speed of sound: Sing-around technique in a fixed-path interferometer; for mass density: Vibrating tube method

SMILES	viscosity (293.15 K) [mPa·s]	speed of sound (293.15 K) [m/s]	mass density (293.15 K) [kg/m3]	viscosity (298.15 K) [mPa·s]	speed of sound (298.15 K) [m/s]	mass density (298.15 K) [kg/m3]	viscosity (303.15 K) [mPa·s]	speed of sound (303.15 K) [m/s]	mass density (303.15 K) [kg/m3]	viscosity (308.15 K) [mPa·s]	speed of sound (308.15 K) [m/s]	mass density (308.15 K) [kg/m3]	viscosity (313.15 K) [mPa·s]	speed of sound (313.15 K) [m/s]	mass density (313.15 K) [kg/m3]	viscosity (318.15 K) [mPa·s]	speed of sound (318.15 K) [m/s]	mass density (318.15 K) [kg/m3]	viscosity (323.15 K) [mPa·s]	speed of sound (323.15 K) [m/s]	also measured
CCCCCC(=O)O.O=C1CCCCCN1 [ε-caprolactam hexanoate]	42 ± 1.2	1472.7 ± 4.2	998.59 ± 3.4	30.85 ± 0.9	1456 ± 4.2	994.69 ± 3.4	23.4 ± 0.68	1439 ± 4.2	990.78 ± 3.3	18.11 ± 0.53	1421.9 ± 4.2	986.88 ± 3.3	14.25 ± 0.42	1404.8 ± 4.2	982.97 ± 3.3	11.59 ± 0.34	1387.8 ± 4.2	979.04 ± 3.3	9.44 ± 0.28	1370.8 ± 4.2	mass density (323.15 K): 975.15 ± 3.2 kg/m3; viscosity (328.15 K): 7.91 ± 0.23 mPa·s; speed of sound (328.15 K): 1353.4 ± 4.2 m/s; mass density (328.15 K): 971.24 ± 3.2 kg/m3; viscosity (333.15 K): 6.64 ± 0.19 mPa·s; speed of sound (333.15 K): 1336.8 ± 4.2 m/s; mass density (333.15 K): 967.34 ± 3.2 kg/m3
CC(=O)O.O=C1CCCCCN1 [ε-caprolactam acetate]	39.81 ± 1.2	1523.1 ± 4.2	1060.03 ± 3.8	29.03 ± 0.85	1507 ± 4.2	1055.92 ± 3.8	21.92 ± 0.64	1489.7 ± 4.2	1051.83 ± 3.8	17.03 ± 0.5	1472.8 ± 4.2	1047.74 ± 3.7	13.68 ± 0.4	1456.1 ± 4.2	1043.65 ± 3.7	11.1 ± 0.32	1439.3 ± 4.2	1039.56 ± 3.7	9.19 ± 0.27	1422.6 ± 4.2	mass density (323.15 K): 1035.46 ± 3.6 kg/m3; viscosity (328.15 K): 7.67 ± 0.22 mPa·s; speed of sound (328.15 K): 1406 ± 4.2 m/s; mass density (328.15 K): 1031.37 ± 3.6 kg/m3; viscosity (333.15 K): 6.48 ± 0.19 mPa·s; speed of sound (333.15 K): 1389.5 ± 4.2 m/s; mass density (333.15 K): 1027.28 ± 3.6 kg/m3
O=C1CCCN1.O=CO [γ-butyrolactam formate]	7.17 ± 0.19	1531.2 ± 3.2	1140.78 ± 2.5	6.14 ± 0.16	1515.7 ± 3.2	1136.14 ± 2.5	5.32 ± 0.14	1500 ± 3.2	1131.51 ± 2.5	4.64 ± 0.12	1484.4 ± 3.2	1126.89 ± 2.4	4.09 ± 0.11	1468.5 ± 3.2	1122.25 ± 2.4	3.63 ± 0.09	1452.9 ± 3.2	1117.61 ± 2.4	3.25 ± 0.08	1437.5 ± 3.2	mass density (323.15 K): 1112.99 ± 2.4 kg/m3; viscosity (328.15 K): 2.92 ± 0.08 mPa·s; speed of sound (328.15 K): 1422.1 ± 3.2 m/s; mass density (328.15 K): 1108.35 ± 2.4 kg/m3; viscosity (333.15 K): 2.65 ± 0.07 mPa·s; speed of sound (333.15 K): 1406.8 ± 3.2 m/s; mass density (333.15 K): 1103.72 ± 2.3 kg/m3
CCCCCC(=O)O.O=C1CCCN1 [γ-butyrolactam hexanoate]	14.67 ± 0.43	1429.3 ± 4.2	1018.78 ± 3.5	12.13 ± 0.35	1412.8 ± 4.2	1014.67 ± 3.5	10.16 ± 0.3	1396.2 ± 4.2	1010.57 ± 3.5	8.63 ± 0.25	1379.6 ± 4.2	1006.47 ± 3.4	7.4 ± 0.22	1363.2 ± 4.2	1002.37 ± 3.4	6.42 ± 0.19	1346.9 ± 4.2	998.27 ± 3.4	5.61 ± 0.16	1330.7 ± 4.2	mass density (323.15 K): 994.17 ± 3.4 kg/m3; viscosity (328.15 K): 4.94 ± 0.14 mPa·s; speed of sound (328.15 K): 1314.7 ± 4.2 m/s; mass density (328.15 K): 990.08 ± 3.3 kg/m3; viscosity (333.15 K): 4.39 ± 0.13 mPa·s; speed of sound (333.15 K): 1298.6 ± 4.2 m/s; mass density (333.15 K): 985.98 ± 3.3 kg/m3
CC(=O)O.O=C1CCCN1 [γ-butyrolactam acetate]	9.36 ± 0.24	1514.5 ± 3.2	1099.8 ± 2.3	7.84 ± 0.2	1496.7 ± 3.2	1095.35 ± 2.3	6.66 ± 0.17	1480.9 ± 3.2	1090.91 ± 2.3	5.72 ± 0.15	1464 ± 3.2	1086.47 ± 2.2	4.96 ± 0.13	1447.2 ± 3.2	1082.03 ± 2.2	4.35 ± 0.11	1429.3 ± 3.2	1077.57 ± 2.2	3.83 ± 0.1	1412.5 ± 3.2	mass density (323.15 K): 1073.12 ± 2.2 kg/m3; viscosity (328.15 K): 3.4 ± 0.09 mPa·s; speed of sound (328.15 K): 1395.7 ± 3.2 m/s; mass density (328.15 K): 1068.69 ± 2.2 kg/m3; viscosity (333.15 K): 3.06 ± 0.08 mPa·s; speed of sound (333.15 K): 1379 ± 3.2 m/s; mass density (333.15 K): 1064.24 ± 2.1 kg/m3
O=C1CCCCCN1.O=CO [ε-caprolactam formate]	30.96 ± 0.9	1552 ± 4.2	1087.05 ± 4	23.92 ± 0.7	1536 ± 4.2	1082.87 ± 4	18.86 ± 0.55	1520.2 ± 4.2	1078.69 ± 4	15.14 ± 0.44	1504.4 ± 4.2	1074.51 ± 3.9	12.36 ± 0.36	1488.5 ± 4.2	1070.32 ± 3.9	10.24 ± 0.3	1472.8 ± 4.2	1066.13 ± 3.9	8.59 ± 0.25	1457.9 ± 4.2	mass density (323.15 K): 1061.95 ± 3.9 kg/m3; viscosity (328.15 K): 7.3 ± 0.21 mPa·s; speed of sound (328.15 K): 1441.1 ± 4.2 m/s; mass density (328.15 K): 1057.77 ± 3.8 kg/m3; viscosity (333.15 K): 6.27 ± 0.18 mPa·s; speed of sound (333.15 K): 1425.1 ± 4.2 m/s; mass density (333.15 K): 1053.59 ± 3.8 kg/m3
